# Laboratory results reported in publication PMC10817917, “Alkyl deoxyglycoside-polymyxin combinations against critical priority carbapenem-resistant gram-negative bacteria” (Scientific Reports, 2024).
# Several values for one entry are separate records, joined by “and”; a condition that tells them apart may be missing. Equal entries are not always repeated. Where two headings read alike, the source gives them in different places.
# Key:
# E. coli ATCC 25922 = test: Broth microdilution MIC/MBC, glycosides with or without polymyxins; type: cell-based, Escherichia coli; details: for MIC: Escherichia coli, ATCC25922
# E. cloacae CQ1941 = test: as above; type: cell-based; details: for MIC: Enterobacter cloacae, CQ1941
# K. pneumoniae CQ1942 = test: Broth microdilution MIC, glycosides with or without polymyxins; type: cell-based, Klebsiella pneumoniae; details: for MIC: Klebsiella pneumoniae, CQ1942
# Caco-2 cells = test: Resazurin cell viability assay (cytotoxicity); type: cell-based, human; details: Homo sapiens, Caco-2, 72 h, read-out: IC50
# Method in brief: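 HEK-293T and Caco-2 cells (1.5 × 10^4/well, RPMI 1640 with 10% FBS) exposed 72 h at 37 °C to glycosides at final 100 to 10 µM, alone or with PMB or colistin at final 0.5, 0.25 or 0.125 µg/mL; max DMSO 0.33%. Resazurin added 4 h, read 570/600 nm; IC50 from dose-response fits, mean ± SD of three replicates.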
# [1] = alone, read-out: MICA (MIC of each compound individually)
# [2] = combination with the lowest FICI
# [3] = compound + colistin, lowest FICI
smiles,measurement,setting,value
"CCCCCCCCCCCC[C@H]1O[C@H](C)C[C@H](O)[C@H]1O [Compound 5, 1-(4,6-dideoxy-α-D-xylo-hexopyranosyl)dodecane]",MIC of colistin in combination with the compound,"E. coli ATCC 25922; Cpd conc. 0.4 μg/mL, strain A",> 0.5 µg/mL
same,MIC of colistin in combination with the compound,"E. coli ATCC 25922; Cpd conc. 0.8 μg/mL, strain A",> 0.5 µg/mL
same,MIC of colistin in combination with the compound,"E. coli ATCC 25922; Cpd conc. 3.125 μg/mL, strain A",0.25 µg/mL
same,MIC of colistin in combination with the compound,"E. coli ATCC 25922; Cpd conc. 6.25 μg/mL, strain A",0.125 µg/mL
same,MIC of colistin in combination with the compound,"E. coli ATCC 25922; Cpd conc. 12.5 μg/mL, strain A",≤ 0.06 µg/mL
same,MIC of colistin in combination with the compound,"E. coli ATCC 25922; Cpd conc. […], strain A",0.5 µg/mL
same,MIC,"E. coli ATCC 25922; agent alone, no adjuvant (polymyxin conc. 0), strain A, read-out: MIC",> 100 µg/mL
same,MIC,E. coli ATCC 25922; [1],> 100 µg/mL
same,MIC of compound in combination with PMB,"E. coli ATCC 25922; PMB 0.25 μg/mL, strain A",3.1 µg/mL
same,MIC of compound in combination with PMB,"E. coli ATCC 25922; PMB 0.5 μg/mL, strain A",3.1 µg/mL
same,MIC of compound in combination with colistin,"E. coli ATCC 25922; colistin 0.06 μg/mL, strain A",12.5 µg/mL
same,MBC of compound in combination with colistin,"E. coli ATCC 25922; colistin 0.125 μg/mL, strain A",6.3|6.3 μg/mL
same,MIC of compound in combination with colistin,"E. coli ATCC 25922; colistin 0.125 μg/mL, strain A",6.3 μg/mL and 6.3|6.3 μg/mL
same,MIC of compound in combination with colistin,"E. coli ATCC 25922; colistin 0.25 μg/mL, strain A",3.1 µg/mL
same,MIC of compound in combination with colistin,"E. coli ATCC 25922; colistin 0.5 μg/mL, strain A",1.6 µg/mL
same,MICA(A + B) (MIC of compound in combination with colistin),E. coli ATCC 25922; [2],12.5 µg/mL
same,MICB(A + B) (MIC of colistin in combination with compound),E. coli ATCC 25922; [2],0.06 µg/mL
same,Interpretation (of FICI),E. coli ATCC 25922; compound + colistin,Synergy (Values ≤ 0.5 were considered synergistic)
same,FICI,E. coli ATCC 25922; [3],0.18
same,MIC of colistin in combination with the compound,"E. cloacae CQ1941; Cpd conc. 0.4 μg/mL, strain D",0.5 µg/mL
same,MIC of colistin in combination with the compound,"E. cloacae CQ1941; Cpd conc. 0.8 μg/mL, strain D",0.5 µg/mL
same,MIC of colistin in combination with the compound,"E. cloacae CQ1941; Cpd conc. 3.125 μg/mL, strain D",0.125 µg/mL
same,MIC of colistin in combination with the compound,"E. cloacae CQ1941; Cpd conc. 6.25 μg/mL, strain D",0.125 µg/mL
same,MIC of colistin in combination with the compound,"E. cloacae CQ1941; Cpd conc. 12.5 μg/mL, strain D",0.125 µg/mL
same,MIC of colistin in combination with the compound,"E. cloacae CQ1941; Cpd conc. […], strain D",0.5 µg/mL
same,MIC,"E. cloacae CQ1941; agent alone, no adjuvant (polymyxin conc. 0), strain D, read-out: MIC",> 100 µg/mL
same,MIC,E. cloacae CQ1941; [1],> 100 µg/mL
same,MIC of compound in combination with PMB,"E. cloacae CQ1941; PMB 0.25 μg/mL, strain D",> 100 µg/mL
same,MIC of compound in combination with PMB,"E. cloacae CQ1941; PMB 0.5 μg/mL, strain D",1.6 µg/mL
same,MIC of compound in combination with colistin,"E. cloacae CQ1941; colistin 0.06 μg/mL, strain D",> 100 µg/mL
same,MBC of compound in combination with colistin,"E. cloacae CQ1941; colistin 0.125 μg/mL, strain D",6.3 µg/mL
same,MIC of compound in combination with colistin,"E. cloacae CQ1941; colistin 0.125 μg/mL, strain D",3.1 µg/mL
same,MIC of compound in combination with colistin,"E. cloacae CQ1941; colistin 0.25 μg/mL, strain D",3.1 µg/mL
same,MIC of compound in combination with colistin,"E. cloacae CQ1941; colistin 0.5 μg/mL, strain D",≤ 0.1 µg/mL
same,MICA(A + B) (MIC of compound in combination with colistin),E. cloacae CQ1941; [2],3.125 µg/mL
same,MICB(A + B) (MIC of colistin in combination with compound),E. cloacae CQ1941; [2],0.125 µg/mL
same,FICI,E. cloacae CQ1941; [3],0.27
same,MIC of colistin in combination with the compound,"K. pneumoniae CQ1942; Cpd conc. 0.4 μg/mL, strain E",0.5 µg/mL
same,MIC of colistin in combination with the compound,"K. pneumoniae CQ1942; Cpd conc. 0.8 μg/mL, strain E",0.5 µg/mL
same,MIC of colistin in combination with the compound,"K. pneumoniae CQ1942; Cpd conc. 3.125 μg/mL, strain E",0.25 µg/mL
same,MIC of colistin in combination with the compound,"K. pneumoniae CQ1942; Cpd conc. 6.25 μg/mL, strain E",0.25 µg/mL
same,MIC of colistin in combination with the compound,"K. pneumoniae CQ1942; Cpd conc. 12.5 μg/mL, strain E",0.25 µg/mL
same,MIC of colistin in combination with the compound,"K. pneumoniae CQ1942; Cpd conc. […], strain E",0.5 µg/mL
same,MIC,"K. pneumoniae CQ1942; agent alone, no adjuvant (polymyxin conc. 0), strain E, read-out: MIC",> 100 µg/mL
same,MIC,K. pneumoniae CQ1942; [1],> 100 µg/mL
same,MIC of compound in combination with PMB,"K. pneumoniae CQ1942; PMB 0.25 μg/mL, strain E",> 100 µg/mL
same,MIC of compound in combination with PMB,"K. pneumoniae CQ1942; PMB 0.5 μg/mL, strain E",1.6 µg/mL
same,MIC of compound in combination with colistin,"K. pneumoniae CQ1942; colistin 0.06 μg/mL, strain E",> 100 µg/mL
same,MIC of compound in combination with colistin,"K. pneumoniae CQ1942; colistin 0.125 μg/mL, strain E",> 100 µg/mL
same,MIC of compound in combination with colistin,"K. pneumoniae CQ1942; colistin 0.5 μg/mL, strain E",≤ 0.1 µg/mL
same,MICA(A + B) (MIC of compound in combination with colistin),K. pneumoniae CQ1942; [2],3.125 µg/mL
same,MICB(A + B) (MIC of colistin in combination with compound),K. pneumoniae CQ1942; [2],0.25 µg/mL
same,Interpretation (of FICI),K. pneumoniae CQ1942; compound + colistin,Additive (from 0.5 to 1.0 were additive)
same,FICI,K. pneumoniae CQ1942; [3],0.52
same,IC50,Caco-2 cells; Colistin 0.25 μg/mL,64.9 ± 0.98 µM
same,IC50,Caco-2 cells; Colistin 0.5 μg/mL,64.1 ± 1.09 µM
same,IC50,Caco-2 cells; No polymyxin,62.4 ± 1.22 µM
same,IC50,Caco-2 cells; PMB 0.25 μg/mL,61.1 ± 1.06 µM
same,IC50,Caco-2 cells; tested alone (no polymyxin adjuvant),18.7 µg/mL
